Reference: PubChem BioAssay AID330 (DTP/NCI, 2004)
Several values for one entry are separate records, joined by “and”; a condition that tells them apart may be missing. Equal entries are not always repeated. Toxic doses and inconclusive results are not listed. The calls were made as follows: active = survival T/C of 150% or more; inactive = T/C below 125% in these data.

Tested on: P388 leukemia ip, CD2F1 mice, survival T/C
Assay: NCI In Vivo Anticancer Drug Screen. Data for tumor model P388 Leukemia (intraperitoneal) in CD2F1 (CDF1) mice
Conditions: endpoint: median survival time, higher = longer survival
In short: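 Mice carrying the transplanted tumor received test compound or vehicle. Survival was recorded in each group, and the value is the treated-group measurement divided by that of the vehicle-treated control group.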

[1] = dose: 100.0 mg/kg/injection, schedule: Q04DX002 (ip), vehicle: Klucel (hydroxypropylcellulose) (HPC)
[2] = dose: 200.0 mg/kg/injection, schedule: Q04DX002 (ip), vehicle: Klucel (hydroxypropylcellulose) (HPC)
[3] = dose: 400.0 mg/kg/injection, schedule: Q04DX002 (ip), vehicle: Klucel (hydroxypropylcellulose) (HPC)
[4] = dose: 50.0 mg/kg/injection, schedule: Q01DX009 (ip), vehicle: saline
[5] = dose: 100.0 mg/kg/injection, schedule: Q01DX009 (ip), vehicle: saline
[6] = dose: 200.0 mg/kg/injection, schedule: Q01DX009 (ip), vehicle: saline
[7] = dose: 100.0 mg/kg/injection, schedule: Q04DX003 (ip), vehicle: saline with Tween-80
[8] = dose: 60.0 mg/kg/injection, schedule: Q01DX005 (ip), vehicle: saline with Tween-80
[9] = dose: 120.0 mg/kg/injection, schedule: Q01DX005 (ip), vehicle: saline with Tween-80
[10] = dose: 240.0 mg/kg/injection, schedule: Q01DX005 (ip), vehicle: saline with Tween-80
[11] = dose: 60.0 mg/kg/injection, schedule: Q01DX005 (ip), vehicle: Klucel (hydroxypropylcellulose) (HPC)
[12] = dose: 120.0 mg/kg/injection, schedule: Q01DX005 (ip), vehicle: Klucel (hydroxypropylcellulose) (HPC)

Measured: T/C

COC(=O)n1oc2c(Br)cc(Br)cc2c1=O
inactive: [1] 93 % of control | [2] 101 % of control | [3] 101 % of control

COc1cccc(N=Nc2c(C)nn(C(=S)S)c2C)c1
inactive: dose: 50.0 mg/kg/injection, schedule: Q01DX005 (ip), vehicle: saline with Tween-80 101 % of control | dose: 100.0 mg/kg/injection, schedule: Q01DX005 (ip), vehicle: saline with Tween-80 100 % of control | dose: 200.0 mg/kg/injection, schedule: Q01DX005 (ip), vehicle: saline with Tween-80 94 % of control

O=C(Oc1ccc[nH]c1=O)C1CC1
inactive: dose: 12.5 mg/kg/injection, schedule: Q01DX009 (ip), vehicle: saline 99 % of control and 100 % of control | dose: 25.0 mg/kg/injection, schedule: Q01DX009 (ip), vehicle: saline 101 % of control and 102 % of control | [4] 98 % of control and 108 % of control | [5] 103 % of control and 106 % of control | [6] 107 % of control and 117 % of control | dose: 400.0 mg/kg/injection, schedule: Q01DX009 (ip), vehicle: saline 100 % of control

CC(=O)OC1C(C)C2CCC13CC=C(C)CC23 (configuration not stated)
inactive: dose: 50.0 mg/kg/injection, schedule: Q01DX005 (ip), vehicle: Klucel (hydroxypropylcellulose) (HPC) 101 % of control | dose: 100.0 mg/kg/injection, schedule: Q01DX005 (ip), vehicle: Klucel (hydroxypropylcellulose) (HPC) 108 % of control | dose: 200.0 mg/kg/injection, schedule: Q01DX005 (ip), vehicle: Klucel (hydroxypropylcellulose) (HPC) 110 % of control

Cc1nc2cc3c(=O)n(C)cnc3cc2n1Cc1ccccc1
inactive: dose: 12.5 mg/kg/injection, schedule: Q04DX002 (ip), vehicle: Klucel (hydroxypropylcellulose) (HPC) 104 % of control | dose: 25.0 mg/kg/injection, schedule: Q04DX002 (ip), vehicle: Klucel (hydroxypropylcellulose) (HPC) 104 % of control | dose: 50.0 mg/kg/injection, schedule: Q04DX002 (ip), vehicle: Klucel (hydroxypropylcellulose) (HPC) 107 % of control

COC(=O)NC1(NC(=O)OC)NC(=O)c2ccccc2N1
inactive: dose: 25.0 mg/kg/injection, schedule: Q01DX005 (ip), vehicle: DMSO 98 % of control | dose: 50.0 mg/kg/injection, schedule: Q01DX005 (ip), vehicle: DMSO 100 % of control

COc1cccc(/C=C/c2ccnnc2)c1
inactive: [4] 96 % of control | [5] 95 % of control | [6] 95 % of control

Cc1ccc(NC2OC(CO)C(O)C2O)c([N+](=O)[O-])c1 (configuration not stated)
inactive: dose: 100.0 mg/kg/injection, schedule: Q01DX001 (ip), vehicle: saline 108 % of control | dose: 200.0 mg/kg/injection, schedule: Q01DX001 (ip), vehicle: saline 97 % of control | dose: 400.0 mg/kg/injection, schedule: Q01DX001 (ip), vehicle: saline 99 % of control

NNc1nncc2c1[nH]c1ccccc12
inactive: dose: 1.56 mg/kg/injection, schedule: Q01DX001 (ip), vehicle: saline with Tween-80 102 % of control | dose: 3.12 mg/kg/injection, schedule: Q01DX001 (ip), vehicle: saline with Tween-80 102 % of control | dose: 6.25 mg/kg/injection, schedule: Q01DX001 (ip), vehicle: saline with Tween-80 105 % of control | dose: 12.5 mg/kg/injection, schedule: Q01DX001 (ip), vehicle: saline with Tween-80 103 % of control

CC1(C)C(C)(C)C1(Cl)S(C)(=O)=O
inactive: [7] 101 % of control | dose: 200.0 mg/kg/injection, schedule: Q04DX003 (ip), vehicle: saline with Tween-80 106 % of control | dose: 400.0 mg/kg/injection, schedule: Q04DX003 (ip), vehicle: saline with Tween-80 106 % of control

OC(CO/N=C1/c2ccccc2CCC1Cc1ccccc1)CN1CCOCC1 (configuration not stated)
inactive: [8] 108 % of control | [9] 116 % of control | [10] 114 % of control

CC1=CC2C(=O)N(C)C1c1ccccc12 (configuration not stated)
inactive: [1] 100 % of control | [2] 100 % of control | [3] 97 % of control

COc1ccccc1NC(=O)C1=C(C)NC(C)=C(C(=O)Nc2ccccc2OC)C1c1cccc([N+](=O)[O-])c1
inactive: [11] 92 % of control | [12] 88 % of control

Cc1cc(O)cc(O)c1C(=O)OC1CC2(C)C3CC(C)(C)CC3C=C(C=O)C12O (configuration not stated)
inactive: dose: 1.5 mg/kg/injection, schedule: Q01DX005 (ip), vehicle: Klucel + Tween-80 107 % of control | dose: 3.0 mg/kg/injection, schedule: Q01DX005 (ip), vehicle: Klucel + Tween-80 97 % of control | dose: 6.0 mg/kg/injection, schedule: Q01DX005 (ip), vehicle: Klucel + Tween-80 103 % of control | dose: 12.0 mg/kg/injection, schedule: Q01DX005 (ip), vehicle: Klucel + Tween-80 99 % of control

O=C(Nc1ccc(C2=NCCN2)cc1)c1cc2ccc(C3=NCCN3)cc2[nH]1
inactive: dose: 12.5 mg/kg/injection, schedule: Q04DX003 (ip), vehicle: saline 101 % of control | dose: 25.0 mg/kg/injection, schedule: Q04DX003 (ip), vehicle: saline 112 % of control | dose: 50.0 mg/kg/injection, schedule: Q04DX003 (ip), vehicle: saline 118 % of control

O=C1C(=O)C(Cl)=C(Cl)C(Cl)=C1Cl
inactive: dose: 6.25 mg/kg/injection, schedule: Q01DX009 (ip), vehicle: saline with Tween-80 100 % of control and 95 % of control | dose: 12.5 mg/kg/injection, schedule: Q01DX009 (ip), vehicle: saline with Tween-80 93 % of control | dose: 25.0 mg/kg/injection, schedule: Q01DX009 (ip), vehicle: saline with Tween-80 100 % of control and 98 % of control

Cc1cc([Se][Se]c2cc(C)c(C)cc2[N+](=O)[O-])c([N+](=O)[O-])cc1C
inactive: [8] 92 % of control | [9] 93 % of control | [10] 91 % of control

CCCCCCCCN(CCCCCCCC)/N=C/c1c2c(O)c3c(O)c(C)c4c(c3c1O)C(=O)C(C)(O/C=C/C(OC)C(C)C(OC(C)=O)C(C)C(O)C(C)C(O)C(C)/C=C/C=C(C)C(=O)N2)O4 (configuration not stated)
inactive: [11] 95 % of control | [12] 89 % of control | dose: 240.0 mg/kg/injection, schedule: Q01DX005 (ip), vehicle: Klucel (hydroxypropylcellulose) (HPC) 92 % of control

Nc1c(Br)cc2c(c1Br)Cc1cc([N+](=O)[O-])ccc1-2
inactive: dose: 31.3 mg/kg/injection, schedule: Q01DX010 (ip), vehicle: saline 90 % of control | dose: 62.5 mg/kg/injection, schedule: Q01DX010 (ip), vehicle: saline 100 % of control | dose: 125.0 mg/kg/injection, schedule: Q01DX010 (ip), vehicle: saline 105 % of control | dose: 250.0 mg/kg/injection, schedule: Q01DX010 (ip), vehicle: saline 110 % of control

COc1onc(C)c1CC(=O)O
inactive: dose: 18.75 mg/kg/injection, schedule: Q01DX005 (ip), vehicle: saline with Tween-80 97 % of control | dose: 37.5 mg/kg/injection, schedule: Q01DX005 (ip), vehicle: saline with Tween-80 101 % of control | dose: 75.0 mg/kg/injection, schedule: Q01DX005 (ip), vehicle: saline with Tween-80 95 % of control | dose: 150.0 mg/kg/injection, schedule: Q01DX005 (ip), vehicle: saline with Tween-80 99 % of control

CC(C)(C)C1CCS(=O)(=O)CC1.[Cl][Hg][Cl]
inactive: dose: 0.25 mg/kg/injection, schedule: Q01DX009 (ip), vehicle: saline 109 % of control | dose: 0.5 mg/kg/injection, schedule: Q01DX009 (ip), vehicle: saline 95 % of control | dose: 1.0 mg/kg/injection, schedule: Q01DX009 (ip), vehicle: saline 90 % of control

C=CCC(C)/C(=N\[N+](C)(C)C)c1ccccc1 (configuration not stated)
inactive: dose: 12.5 mg/kg/injection, schedule: Q01DX001 (ip), vehicle: saline 100 % of control | dose: 25.0 mg/kg/injection, schedule: Q01DX001 (ip), vehicle: saline 106 % of control | dose: 50.0 mg/kg/injection, schedule: Q01DX001 (ip), vehicle: saline 99 % of control

CP1(C)=NP(C)(C)=NP(C)(C)=NP(C)(C)=N1.[Cl][Pt]([Cl])([Cl])[Cl]
inactive: dose: 6.25 mg/kg/injection, schedule: Q04DX003 (ip), vehicle: saline with Tween-80 106 % of control | dose: 12.5 mg/kg/injection, schedule: Q04DX003 (ip), vehicle: saline with Tween-80 106 % of control and 107 % of control | dose: 25.0 mg/kg/injection, schedule: Q04DX003 (ip), vehicle: saline with Tween-80 110 % of control | dose: 50.0 mg/kg/injection, schedule: Q04DX003 (ip), vehicle: saline with Tween-80 120 % of control and 122 % of control | [7] 118 % of control

CN=c1nc2n3c(cccc3n1)NC(C)=N2
inactive: [8] 100 % of control | [9] 92 % of control | [10] 99 % of control

O=C(N=c1sc2ccccc2s1)N=c1sc2ccccc2s1
inactive: dose: 30.0 mg/kg/injection, schedule: Q01DX005 (ip), vehicle: Klucel (hydroxypropylcellulose) (HPC) 99 % of control | [11] 86 % of control and 91 % of control | [12] 95 % of control
